In ChEMBL document CHEMBL5150076, “Discovery of Novel Orally Bioavailable Triazoles with Potent and Broad-Spectrum Antifungal Activity In Vitro and In Vivo” (J Med Chem, 2022):
In brackets after ≈: the same amount, converted by molar mass.

Legend:
Type in all cases: functional
[1] = system: Candida albicans; assay: Antifungal activity against Candida albicans SC5314 incubated for 24 hrs by microbroth dilution method
[2] = system: Cryptococcus neoformans; assay: Antifungal activity against Cryptococcus neoformans H99 incubated for 72 hrs by microbroth dilution method
[3] = system: Aspergillus fumigatus; assay: Antifungal activity against Aspergillus fumigatus 7544 incubated for 48 hrs by microbroth dilution method
[4] = system: Nannizzia gypsea; assay: Antifungal activity against Microsporum gypseum
[5] = system: Candida parapsilosis; assay: Antifungal activity against Candida parapsilosis 22019; settings: Lodderomyces parapsilosis
[6] = system: Candida albicans; assay: Antifungal activity against Candida albicans Y0109
[7] = system: Cryptococcus neoformans; assay: Antifungal activity against Cryptococcus neoformans 32605
[8] = system: Nakaseomyces glabratus; assay: Antifungal activity against Candida glabrata 537
[9] = system: Trichophyton rubrum; assay: Antifungal activity against Trichophyton rubrum cmccftla

Row | SMILES | MIC [1] [µg/mL] | MIC [2] [µg/mL] | MIC [3] [µg/mL] | MIC [4] [µg/mL] | MIC [5] [µg/mL] | MIC [6] [µg/mL] | MIC [7] [µg/mL] | MIC [8] [µg/mL] | MIC [9] [µg/mL]
1 | C[C@@H](c1cn(-c2ccc(OCc3ccc(F)cc3)cc2)nn1)[C@](O)(Cn1cncn1)c1ccc(F)cc1F | 0.125 (≈ 0.24 µM) | 0.0625 (≈ 0.12 µM) | > 64 |  |  |  |  |  | 
2 | C[C@@H](c1cn(-c2ccc(Cl)cc2)nn1)[C@](O)(Cn1cncn1)c1ccc(F)cc1F | 0.0625 (≈ 0.145 µM) | 0.0156 (≈ 0.0362 µM) | 4 (≈ 9.28 µM) |  |  |  |  |  | 
3 | C[C@@H](c1cn(-c2cc(F)c(F)c(F)c2)nn1)[C@](O)(Cn1cncn1)c1ccc(F)cc1F | 0.125 (≈ 0.278 µM) | 0.125 (≈ 0.278 µM) | 2 (≈ 4.44 µM) |  |  |  |  |  | 
4 | C[C@@H](c1cn(-c2ccc(OCC(F)(F)C(F)F)cc2)nn1)[C@](O)(Cn1cncn1)c1ccc(F)cc1F | 0.0156 (≈ 0.0296 µM) | 0.0625 (≈ 0.119 µM) | 2 (≈ 3.8 µM) |  |  |  |  |  | 
5 | C[C@@H](c1cn(-c2ccc(Cl)cc2)nn1)[C@](O)(Cn1cncn1)c1cc(F)ccc1F | 0.125 (≈ 0.29 µM) | 0.125 (≈ 0.29 µM) | 32 (≈ 74.3 µM) |  |  |  |  |  | 
6 | C[C@@H](c1cn(-c2ccc(OCc3ccc(Cl)cc3)cc2)nn1)[C@](O)(Cn1cncn1)c1ccc(F)cc1F | 0.5 (≈ 0.931 µM) | 0.0625 (≈ 0.116 µM) | > 64 |  |  |  |  |  | 
7 | CCCCCCOc1ccc(-n2cc([C@H](C)[C@](O)(Cn3cncn3)c3ccc(F)cc3F)nn2)cc1 | 0.125 (≈ 0.252 µM) | 0.0625 (≈ 0.126 µM) | 8 (≈ 16.1 µM) |  |  |  |  |  | 
8 | C[C@@H](c1cn(-c2ccc(OCC(F)(F)F)cc2)nn1)[C@](O)(Cn1cncn1)c1ccc(F)cc1F | 0.0313 (≈ 0.0633 µM) | 0.125 (≈ 0.253 µM) | 2 (≈ 4.05 µM) |  |  |  |  |  | 
9 | CCCCOc1ccc(-n2cc([C@H](C)[C@](O)(Cn3cncn3)c3ccc(F)cc3F)nn2)cc1 | 0.0156 (≈ 0.0333 µM) | 0.0625 (≈ 0.133 µM) | 2 (≈ 4.27 µM) |  |  |  |  |  | 
10 | C[C@@H](c1cn(-c2ccc(OCc3ccc(C(F)(F)F)cc3)cc2)nn1)[C@](O)(Cn1cncn1)c1ccc(F)cc1F | 1 (≈ 1.75 µM) | 0.125 (≈ 0.219 µM) | 16 (≈ 28 µM) |  |  |  |  |  | 
11 | C[C@@H](c1cn(-c2ccc(F)cc2)nn1)[C@](O)(Cn1cncn1)c1ccc(F)cc1F | 0.0625 (≈ 0.151 µM) | 0.0625 (≈ 0.151 µM) | 4 (≈ 9.65 µM) |  |  |  |  |  | 
12 | C[C@@H](c1cn(-c2ccc(F)cc2F)nn1)[C@](O)(Cn1cncn1)c1ccc(F)cc1F | 0.0625 (≈ 0.145 µM) | 0.0625 (≈ 0.145 µM) | 2 (≈ 4.63 µM) | 2 (≈ 4.63 µM) | 0.0313 (≈ 0.0724 µM) | 0.0625 (≈ 0.145 µM) | 0.0313 (≈ 0.0724 µM) | 0.0313 (≈ 0.0724 µM) | 0.125 (≈ 0.289 µM)
13 | C[C@@H](c1cn(-c2ccc(S(C)(=O)=O)cc2)nn1)[C@](O)(Cn1cncn1)c1ccc(F)cc1F | 0.5 (≈ 1.05 µM) | 4 (≈ 8.43 µM) | > 64 |  |  |  |  |  | 
14 | C[C@@H](c1cn(-c2cccc(F)c2)nn1)[C@](O)(Cn1cncn1)c1ccc(F)cc1F | 0.0625 (≈ 0.151 µM) | 0.125 (≈ 0.302 µM) | 16 (≈ 38.6 µM) |  |  |  |  |  | 
15 | C[C@@H](c1cn(-c2ccc(C#N)cc2)nn1)[C@](O)(Cn1cncn1)c1ccc(F)cc1F | 0.125 (≈ 0.297 µM) | 0.25 (≈ 0.593 µM) | > 64 |  |  |  |  |  | 
16 | C[C@@H](c1cn(-c2ccc(OC(F)(F)F)cc2)nn1)[C@](O)(Cn1cncn1)c1ccc(F)cc1F | 0.0313 (≈ 0.0652 µM) | 0.0625 (≈ 0.13 µM) | 4 (≈ 8.33 µM) | 2 (≈ 4.16 µM) | 0.125 (≈ 0.26 µM) | 0.0313 (≈ 0.0652 µM) | 0.0625 (≈ 0.13 µM) | 0.125 (≈ 0.26 µM) | 0.15 (≈ 0.312 µM)
17 | C[C@@H](c1cn(-c2ccc(C(F)(F)F)cc2)nn1)[C@](O)(Cn1cncn1)c1ccc(F)cc1F | 0.0625 (≈ 0.135 µM) | 0.0625 (≈ 0.135 µM) | 16 (≈ 34.5 µM) |  |  |  |  |  | 
18 | C[C@@H](c1cn(-c2cncnc2)nn1)[C@](O)(Cn1cncn1)c1ccc(F)cc1F | 0.5 (≈ 1.26 µM) | 4 (≈ 10 µM) | 64 (≈ 161 µM) |  |  |  |  |  | 
19 | C[C@@H](c1cn(-c2ccc([N+](=O)[O-])cc2)nn1)[C@](O)(Cn1cncn1)c1ccc(F)cc1F |  | 0.25 (≈ 0.566 µM) | > 64 |  |  |  |  |  | 
20 | C[C@@H](c1cn(-c2ccc(OCc3ccc(OC(F)(F)F)cc3)cc2)nn1)[C@](O)(Cn1cncn1)c1ccc(F)cc1F | 0.25 (≈ 0.426 µM) | 0.0625 (≈ 0.107 µM) | 8 (≈ 13.6 µM) |  |  |  |  |  | 
21 | C[C@@H](c1cn(-c2ccc(F)c(F)c2)nn1)[C@](O)(Cn1cncn1)c1ccc(F)cc1F | 0.0625 (≈ 0.145 µM) | 0.125 (≈ 0.289 µM) | 8 (≈ 18.5 µM) |  |  |  |  |  | 
